These results are taken from PubChem BioAssay AID296 (DTP/NCI, 2004).

This assay concerns MX-1 breast xenograft, nude mice, tumor weight T/C. Description: NCI In Vivo Anticancer Drug Screen. Data for tumor model Human Mammary Carcinoma MX-1 Xenograft (intrarenal inoculation) in NU/NU Swiss (nude) mice. Particulars: endpoint: mean tumor weight change, higher = larger tumour. A digest of the protocol: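 Activity is given as a ratio, with each measurement in the compound-treated arm divided by the matching measurement in vehicle-dosed controls. Tumour size or survival serves as the measured parameter.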
In general terms: A xenograft is tissue or cells of one species grown in another, often human tumour cells in immunodeficient mice.

[1] abbreviates: dose: 18.75 mg/kg/injection, schedule: Q04DX003 (sc), vehicle: saline.
Setting [2] is: dose: 300.0 mg/kg/injection, schedule: Q04DX003 (sc), vehicle: saline with Tween-80.
[3] abbreviates: dose: 600.0 mg/kg/injection, schedule: Q04DX003 (sc), vehicle: saline with Tween-80.
Setting [4] is: dose: 1200.0 mg/kg/injection, schedule: Q04DX003 (sc), vehicle: saline with Tween-80.
Where [5] appears, read: dose: 12.5 mg/kg/injection, schedule: Q01DX010 (sc), vehicle: Klucel (hydroxypropylcellulose) (HPC).
[6] abbreviates: dose: 25.0 mg/kg/injection, schedule: Q01DX010 (sc), vehicle: Klucel (hydroxypropylcellulose) (HPC).

SMILES strings stand for the structures. “And” between values parts separate entries of the source, which are not always exact repeats. Identical values can stand only once. Records with an inconclusive call do not appear.

For `O=NN(CCCl)C(=O)NC1CCCCC1`, the T/C is 109 % of control (dose: 4.0 mg/kg/injection, schedule: Q01DX010 (sc), vehicle: saline with Tween-80); 88 % of control and 92 % of control (dose: 8.0 mg/kg/injection, schedule: Q04DX003 (sc), vehicle: Klucel (hydroxypropylcellulose) (HPC)); 89 % of control (dose: 8.0 mg/kg/injection, schedule: Q04DX003 (sc), vehicle: carboxymethylcellulose (CMC)); 59 % of control (dose: 12.5 mg/kg/injection, schedule: Q04DX003 (sc), vehicle: Klucel (hydroxypropylcellulose) (HPC)); 28 % of control (dose: 16.0 mg/kg/injection, schedule: Q01DX010 (sc), vehicle: saline with Tween-80); 85 % of control (dose: 16.0 mg/kg/injection, schedule: Q04DX003 (sc), vehicle: carboxymethylcellulose (CMC)). The T/C is 92 % of control and 213 % of control (dose: 25.0 mg/kg/injection, schedule: Q04DX003 (sc), vehicle: Klucel (hydroxypropylcellulose) (HPC)); 77 % of control (dose: 32.0 mg/kg/injection, schedule: Q04DX003 (sc), vehicle: carboxymethylcellulose (CMC)); -95 % of control (dose: 64.0 mg/kg/injection, schedule: Q04DX003 (sc), vehicle: Klucel (hydroxypropylcellulose) (HPC)); 29 % of control (dose: 64.0 mg/kg/injection, schedule: Q04DX003 (sc), vehicle: carboxymethylcellulose (CMC)).

`O=CNCO`: the T/C by setting is: (dose: 300.0 mg/kg/injection, schedule: Q01DX010 (sc), vehicle: water) 111 % of control; (dose: 600.0 mg/kg/injection, schedule: Q01DX010 (sc), vehicle: water) 62 % of control; (dose: 1200.0 mg/kg/injection, schedule: Q01DX010 (sc), vehicle: water) 37 % of control; (dose: 2000.0 mg/kg/injection, schedule: Q01DX010 (sc), vehicle: water) 5 % of control.

For `Cn1ccc(=Nc2ccc(NC(=O)c3ccc(N=c4ccn(C)c5ccc([N+](=O)[O-])cc45)cc3[N+](=O)[O-])cc2)cc1`, the T/C (dose: 300.0 mg/kg/injection, schedule: Q04DX003 (sc), vehicle: saline + Tween-80 + alcohol) was 123 % of control; the T/C (dose: 1200.0 mg/kg/injection, schedule: Q04DX003 (sc), vehicle: saline + Tween-80 + alcohol) is 117 % of control; the T/C (dose: 2400.0 mg/kg/injection, schedule: Q04DX003 (sc), vehicle: saline + Tween-80 + alcohol) is 69 % of control.

`O=c1[nH]c(=O)n(C2CC(O)C(CO)O2)cc1I` (stereo unspecified): the T/C reads like this: (dose: 100.0 mg/kg/injection, schedule: Q01DX010 (sc), vehicle: saline with Tween-80) 55 % of control; (dose: 200.0 mg/kg/injection, schedule: Q01DX010 (sc), vehicle: saline with Tween-80) 38 % of control; (dose: 400.0 mg/kg/injection, schedule: Q01DX010 (sc), vehicle: saline with Tween-80) 48 % of control.

For `CS(=O)(=O)OCCCNCCCOS(C)(=O)=O`, the T/C under setting [1] is 61 % of control; the T/C (dose: 75.0 mg/kg/injection, schedule: Q04DX003 (sc), vehicle: saline) is 6 % of control and 7 % of control; the T/C (dose: 150.0 mg/kg/injection, schedule: Q04DX003 (sc), vehicle: saline) is 1 % of control.

Consider `CCOc1cc2c(cc1C(C)c1ccc(OC)cc1)OCO2` (stereo unspecified), for which the T/C reads like this: (dose: 150.0 mg/kg/injection, schedule: Q04DX003 (sc), vehicle: distilled water + alcohol) 43 % of control; (dose: 300.0 mg/kg/injection, schedule: Q04DX003 (sc), vehicle: distilled water + alcohol) 31 % of control; (dose: 600.0 mg/kg/injection, schedule: Q04DX003 (sc), vehicle: distilled water + alcohol) 19 % of control; (dose: 1200.0 mg/kg/injection, schedule: Q04DX003 (sc), vehicle: distilled water + alcohol) 52 % of control.

As for `Nc1nc(-c2ccccc2)c(Br)c(=O)[nH]1`, the T/C runs as follows: under setting [2], 96 % of control; under setting [3], 93 % of control; under setting [4], 109 % of control; (dose: 2400.0 mg/kg/injection, schedule: Q04DX003 (sc), vehicle: saline with Tween-80) 65 % of control.

On to `O=C(CCBr)N1CCN(C(=O)CCBr)CC1`, for which the T/C is 111 % of control (dose: 4.5 mg/kg/injection, schedule: Q01DX010 (sc), vehicle: Klucel (hydroxypropylcellulose) (HPC)); 52 % of control under setting [5]; 33 % of control and 48 % of control (dose: 18.0 mg/kg/injection, schedule: Q01DX010 (sc), vehicle: Klucel (hydroxypropylcellulose) (HPC)); 19 % of control under setting [6]; 1 % of control and 9 % of control (dose: 36.0 mg/kg/injection, schedule: Q01DX010 (sc), vehicle: Klucel (hydroxypropylcellulose) (HPC)).

For `COC1C(C)OC(OC2CC(C)(O)Cc3cc4c(c(O)c32)C(=O)c2c(O)cc3c(c2C4=O)OC2OC3(C)C(O)C(N(C)C)C2O)C(OC)C1(C)OC` (stereo unspecified), the T/C is 82 % of control (dose: 10.0 mg/kg/injection, schedule: Q04DX003 (sc), vehicle: Klucel (hydroxypropylcellulose) (HPC)); 94 % of control (dose: 20.0 mg/kg/injection, schedule: Q04DX003 (sc), vehicle: Klucel (hydroxypropylcellulose) (HPC)); 84 % of control (dose: 40.0 mg/kg/injection, schedule: Q04DX003 (sc), vehicle: Klucel (hydroxypropylcellulose) (HPC)); 76 % of control (dose: 80.0 mg/kg/injection, schedule: Q04DX003 (sc), vehicle: Klucel (hydroxypropylcellulose) (HPC)).

`CCCC(=O)OCc1cc(=O)n(C)c2c3c4c(cc12)c(C)cc(=O)n4CO3`: the T/C is, setting by setting: under setting [5], 170 % of control; under setting [6], 67 % of control; (dose: 50.0 mg/kg/injection, schedule: Q01DX010 (sc), vehicle: Klucel (hydroxypropylcellulose) (HPC)) 20 % of control; (dose: 100.0 mg/kg/injection, schedule: Q01DX010 (sc), vehicle: Klucel (hydroxypropylcellulose) (HPC)) 15 % of control; (dose: 200.0 mg/kg/injection, schedule: Q01DX010 (sc), vehicle: Klucel (hydroxypropylcellulose) (HPC)) 87 % of control; (dose: 400.0 mg/kg/injection, schedule: Q01DX010 (sc), vehicle: Klucel (hydroxypropylcellulose) (HPC)) 91 % of control. The T/C (dose: 800.0 mg/kg/injection, schedule: Q01DX010 (sc), vehicle: Klucel (hydroxypropylcellulose) (HPC)) was 72 % of control.

Regarding `C=CCNc1nc2c(s1)CCc1cc(OC)c(OC)cc1-2`, the T/C is, setting by setting: under setting [2], 92 % of control; under setting [3], 96 % of control; under setting [4], 80 % of control.

Regarding `CSC1SCC2C(=O)N(C)C(C(C)C)C(=O)OCC(NC(=O)c3cnc4ccccc4n3)C(=O)NC(C)C(=O)N(C)C1C(=O)N(C)C(C(C)C)C(=O)OCC(NC(=O)c1cnc3ccccc3n1)C(=O)NC(C)C(=O)N2C` (stereo unspecified), the T/C is, setting by setting: (dose: 60.0 micrograms/kg/injection, schedule: Q01DX010 (sc), vehicle: saline) 109 % of control; (dose: 120.0 micrograms/kg/injection, schedule: Q01DX010 (sc), vehicle: saline) 87 % of control; (dose: 240.0 micrograms/kg/injection, schedule: Q01DX010 (sc), vehicle: saline) 40 % of control.

As to `Cc1ncc(CNC(=O)N(CCCl)N=O)c(N)n1`, the T/C is 43 % of control (dose: 9.38 mg/kg/injection, schedule: Q04DX003 (sc), vehicle: saline) and 28 % of control under setting [1].

As to `CCC1CN2C(=N1)c1ccccc1-c1cc(Cl)ccc12` (stereo unspecified), the T/C (dose: 12.5 mg/kg/injection, schedule: Q01DX010 (sc), vehicle: saline with Tween-80) is 108 % of control; the T/C (dose: 25.0 mg/kg/injection, schedule: Q01DX010 (sc), vehicle: saline with Tween-80) is 118 % of control; the T/C (dose: 50.0 mg/kg/injection, schedule: Q01DX010 (sc), vehicle: saline with Tween-80) was 108 % of control.

`CSCS(=O)C[C@H](CO)NC(=O)/C=C/c1c(C)[nH]c(=O)[nH]c1=O` (stereo partly specified): the T/C was 106 % of control (dose: 0.38 mg/kg/injection, schedule: Q04DX003 (sc), vehicle: saline) and 97 % of control (dose: 0.75 mg/kg/injection, schedule: Q04DX003 (sc), vehicle: saline).

Regarding `O=CC(CO)CC(C=O)n1cnc2c(=O)[nH]cnc21` (stereo unspecified), the T/C (dose: 150.0 mg/kg/injection, schedule: Q04DX003 (ip), vehicle: saline) was 62 % of control; the T/C (dose: 300.0 mg/kg/injection, schedule: Q04DX003 (ip), vehicle: saline) is 57 % of control; the T/C (dose: 600.0 mg/kg/injection, schedule: Q04DX003 (ip), vehicle: saline) is 30 % of control.

Consider `O=[Te]=O`, for which the T/C runs as follows: (dose: 12.5 mg/kg/injection, schedule: Q04DX003 (sc), vehicle: suspension in saline) 91 % of control; (dose: 25.0 mg/kg/injection, schedule: Q04DX003 (sc), vehicle: suspension in saline) 79 % of control; (dose: 50.0 mg/kg/injection, schedule: Q04DX003 (sc), vehicle: suspension in saline) 122 % of control.
